Reference: patent US10787446B2 (GENENTECH, INC., priority 2015, dated 2020)
Where a name gives a salt, the structure may show the parent alone.

molecular target: T1, hNav1.7 and the β1 subunit (Homo sapiens, UniProt Q15858); assay: Tritiated compound competitive binding to membranes from cells heterologously expressing hNav1.7 and the β1 subunit (LBA); conditions: competition with 100 pM [3H]compound, 18 h, room temperature; IC50 by 4 parameter logistic model
T1 construct: expressed in transfected cells
Description: Example 235 Tritiated Compound Binding to Membranes Isolated from Cells that Heterologously Express hNav1.7 and the β1 Subunit
Preparation of membranes containing recombinantly expressed sodium channels: Frozen recombinant cell pellets were thawed on ice and diluted to 4 times the cell pellet weight with ice cold 50 mM Tris HCl, pH 7.4 buffer. The cell suspensions were homogenized on ice using a motorized glass dounce homogeniser. Homogenates were further diluted 8.4 times with ice cold 50 mM Tris HCl, pH 7.4 buffer and then centrifuged at 200×g at 4° C. for 15 min. The supernatants were collected and centrifuged at 10000×g at 4° C. for 50 min. The pellets were then re-suspended in 100 mM NaCl, 20 mM Tris HCl, pH 7.4 buffer containing 1% v/v protease inhibitors (Calbiochem) and re-homogenized on ice. The homogenized membranes were then processed through a syringe equipped with a 26 gauge needle. Protein concentrations were determined by Bradford Assay and the membranes were stored at −80° C.
Radioligand Binding Studies:
Saturation experiments. A competitive NaV1.7 inhibitor having a methyl group was tritiated. Three tritiums were incorporated in place of methyl hydrogens to generate [^3H]compound. Binding of this radioligand was performed in 5 mL borosilicate glass test tubes at room temperature. Binding was initiated by adding membranes to increasing concentrations of [^3H]compound in 100 mM NaCl, 20 mM Tris HCl, pH 7.4 buffer containing 0.01% w/v bovine serum albumin (BSA) for 18 h. […] After 18 h, the reactants were filtered through GF/C glass fiber filters presoaked in 0.5% w/v polyethylene imine. […] [^3H]compound bound to filters was quantified by liquid scintillation counting.
Competitive Binding Experiments:
Binding reactions were performed in 96-well polypropylene plates at room temperature for 18 h. In 360 μL, membranes were incubated with 100 pM [^3H]compound and increasing concentrations of Test Compound. […] Reactions were transferred and filtered through 96-well glass fiber/C filter plates presoaked with 0.5% polyethylene imine. The filtered reactions were washed 5 times with 200 μL ice cold buffer containing 0.25% BSA. Bound radioactivity was determined by liquid scintillation counting.
Data Analysis: For saturation experiments, non-specific binding was subtracted from total binding to provide specific binding and these values were recalculated in terms of pmol ligand bound per mg protein. Saturation curves were constructed and dissociation constants were calculated using the single site ligand binding model: Beq=(Bmax*X)/(X+Kd), where Beq is the amount of ligand bound at equilibrium, Bmax is the maximum receptor density, Kd is the dissociation constant for the ligand, and X is the free ligand concentration. For competition studies percent inhibition was determined and IC50 values were calculated using a 4 parameter logistic model (% inhibition=(A+((B−A)/(1+((x/C)^D)))) using XLfit, where A and B are the maximal and minimum inhibition respectively, C is the IC50 concentration and D is the (Hill) slope.

T1 sequence (Q15858 whole entry): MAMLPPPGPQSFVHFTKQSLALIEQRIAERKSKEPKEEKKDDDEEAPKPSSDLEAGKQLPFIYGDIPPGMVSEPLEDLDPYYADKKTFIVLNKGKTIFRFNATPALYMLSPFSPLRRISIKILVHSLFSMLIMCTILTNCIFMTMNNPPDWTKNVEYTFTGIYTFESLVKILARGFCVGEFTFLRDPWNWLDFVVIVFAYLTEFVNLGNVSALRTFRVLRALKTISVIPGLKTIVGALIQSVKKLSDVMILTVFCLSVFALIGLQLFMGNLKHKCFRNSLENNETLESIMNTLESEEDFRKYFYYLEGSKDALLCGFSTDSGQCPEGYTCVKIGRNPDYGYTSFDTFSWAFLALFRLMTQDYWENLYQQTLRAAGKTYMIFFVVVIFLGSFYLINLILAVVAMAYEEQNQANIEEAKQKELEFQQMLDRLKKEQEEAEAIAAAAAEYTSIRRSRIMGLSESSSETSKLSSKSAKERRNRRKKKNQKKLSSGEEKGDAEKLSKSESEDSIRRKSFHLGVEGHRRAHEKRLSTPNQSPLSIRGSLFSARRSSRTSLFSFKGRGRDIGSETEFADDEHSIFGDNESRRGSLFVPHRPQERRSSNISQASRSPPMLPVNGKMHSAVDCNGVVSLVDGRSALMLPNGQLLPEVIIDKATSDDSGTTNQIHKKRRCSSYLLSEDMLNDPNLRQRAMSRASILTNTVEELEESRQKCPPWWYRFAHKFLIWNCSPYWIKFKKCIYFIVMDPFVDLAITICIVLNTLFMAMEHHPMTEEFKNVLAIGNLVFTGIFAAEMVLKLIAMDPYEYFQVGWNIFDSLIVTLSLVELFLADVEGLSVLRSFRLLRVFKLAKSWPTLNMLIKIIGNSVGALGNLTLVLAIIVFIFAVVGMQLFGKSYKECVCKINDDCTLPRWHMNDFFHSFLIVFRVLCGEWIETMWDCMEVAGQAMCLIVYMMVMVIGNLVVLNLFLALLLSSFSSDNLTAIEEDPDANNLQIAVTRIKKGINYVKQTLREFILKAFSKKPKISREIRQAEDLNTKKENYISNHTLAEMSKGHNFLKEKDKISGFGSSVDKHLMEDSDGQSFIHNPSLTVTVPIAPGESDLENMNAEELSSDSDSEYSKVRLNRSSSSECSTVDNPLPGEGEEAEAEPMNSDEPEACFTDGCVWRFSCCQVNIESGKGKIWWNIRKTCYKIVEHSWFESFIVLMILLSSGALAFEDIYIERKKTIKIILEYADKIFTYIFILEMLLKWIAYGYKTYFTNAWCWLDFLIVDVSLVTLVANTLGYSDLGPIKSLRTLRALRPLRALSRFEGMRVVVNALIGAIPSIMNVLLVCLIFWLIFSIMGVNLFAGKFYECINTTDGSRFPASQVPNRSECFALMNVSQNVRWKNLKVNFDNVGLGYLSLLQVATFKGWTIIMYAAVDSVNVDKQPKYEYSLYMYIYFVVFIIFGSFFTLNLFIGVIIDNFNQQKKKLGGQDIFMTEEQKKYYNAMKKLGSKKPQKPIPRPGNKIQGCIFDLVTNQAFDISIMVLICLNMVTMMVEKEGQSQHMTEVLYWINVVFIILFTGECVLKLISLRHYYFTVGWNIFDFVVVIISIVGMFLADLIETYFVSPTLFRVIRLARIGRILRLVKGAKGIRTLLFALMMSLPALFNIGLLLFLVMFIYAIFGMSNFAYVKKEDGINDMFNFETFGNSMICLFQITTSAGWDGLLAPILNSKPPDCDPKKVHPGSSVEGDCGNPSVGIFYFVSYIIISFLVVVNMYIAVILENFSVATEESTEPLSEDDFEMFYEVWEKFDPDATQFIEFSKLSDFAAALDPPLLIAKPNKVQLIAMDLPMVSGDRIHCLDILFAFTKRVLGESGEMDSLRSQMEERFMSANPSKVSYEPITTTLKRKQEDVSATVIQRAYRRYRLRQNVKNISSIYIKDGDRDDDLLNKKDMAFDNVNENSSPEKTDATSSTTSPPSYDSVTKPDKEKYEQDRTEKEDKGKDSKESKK
T1 sequence (Q07699 19-218 partner): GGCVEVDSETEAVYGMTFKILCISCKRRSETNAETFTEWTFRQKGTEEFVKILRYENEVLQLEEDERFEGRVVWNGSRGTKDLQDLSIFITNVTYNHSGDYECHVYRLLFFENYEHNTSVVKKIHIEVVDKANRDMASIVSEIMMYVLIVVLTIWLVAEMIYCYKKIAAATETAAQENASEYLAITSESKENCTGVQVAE

| SMILES | Nav1.7 (LBA) [µM] |
| --- | --- |
| CC[C@H]1CCCCN1[C@H](C)c1ccc(S(=O)(=O)Nc2ncns2)cc1Cl (racemic) [Example 58, (±)-3-chloro-4-((R)-1-((S)-2-ethylpiperidin-1-yl)ethyl)-N-(1,2,4-thiadiazol-5-yl)benzenesulfonamide] | 5.3 |
| O=S(=O)(Nc1ncns1)c1ccc2c(c1)CC[C@@H]2N1CCCC[C@H]1c1ccccc1 (racemic) [Example 67, 1-(2-phenylpiperidin-1-yl)-N-(1,2,4-thiadiazol-5-yl)-2,3-dihydro-1H-indene-5-sulfonamide] | 0.157 |
| O=S(=O)(Nc1ncns1)c1cc2c(cc1F)[C@@H](N1CCCC[C@@H]1c1ccc(F)cc1)CCO2 (racemic) [Example 86, (±)-(S)-6-fluoro-4-((R)-2-(4-fluorophenyl)piperidin-1-yl)-N-(1,2,4-thiadiazol-5-yl)chromane-7-sulfonamide] | 0.00496 |
| O=S(=O)(Nc1ncns1)c1cc2c(cc1F)[C@@H](N1CCCC[C@H]1c1ccc(F)cc1)CCO2 (racemic) [Example 87, (±)-(S)-6-fluoro-4-((S)-2-(4-fluorophenyl)piperidin-1-yl)-N-(1,2,4-thiadiazol-5-yl)chromane-7-sulfonamide] | 0.00726 |
| O=S(=O)(Nc1ncns1)c1cc2c(cc1F)C(N1CCC(C(F)(F)F)CC1c1ccc(F)cc1)CCO2 (racemic) [Example 88, 6-fluoro-4-(cis-2-(4-fluorophenyl)-4-(trifluoromethyl)piperidin-1-yl)-N-(1,2,4-thiadiazol-5-yl)chromane-7-sulfonamide] | 0.00168 |
| O=S(=O)(Nc1nccs1)c1cc2c(cc1F)[C@H](N1CC[C@@H](C(F)(F)F)C[C@H]1c1ccc(F)cc1)CCO2 (racemic) [Example 93] | 0.00333 |
| O=S(=O)(Nc1ncccn1)c1cc2c(cc1F)C(N1CCC(C(F)(F)F)CC1c1ccc(F)cc1)CCO2 (racemic) [Example 96, (±)-(R)-6-fluoro-4-((cis)-2-(4-fluorophenyl)-4-(trifluoromethyl)piperidin-1-yl)-N-(pyrimidin-2-yl)chromane-7-sulfonamide] | 0.00994 |
| CC1(C)CCN(Cc2cc(F)c(S(=O)(=O)Nc3ncns3)cc2F)[C@H](c2ccccc2)C1 (single isomer, unassigned) [Example 2] | 0.288 |
| CC1(C)CCN(Cc2cc(F)c(S(=O)(=O)Nc3ncns3)cc2F)[C@@H](c2ccccc2)C1 (single isomer, unassigned) [Example 3] | 9.28 |
| C[C@@H]1CCN(Cc2cc(F)c(S(=O)(=O)Nc3ncns3)cc2F)[C@H](c2ccccc2)C1 (single isomer, unassigned) [Example 6] | 0.17 |
| C[C@H]1CCN(Cc2cc(F)c(S(=O)(=O)Nc3ncns3)cc2F)[C@@H](c2ccccc2)C1 (single isomer, unassigned) [Example 7] | 4.23 |
| O=S(=O)(Nc1ncns1)c1cc(F)c(CN2CCCC[C@H]2c2ccnnc2)cc1F (single isomer, unassigned) [Example 11] | 1.26 |
| Nc1cc([C@@H]2CCCCN2Cc2cc(F)c(S(=O)(=O)Nc3ncns3)cc2F)ccn1 (single isomer, unassigned) [Example 13] | 0.158 |
| Cn1nccc1[C@H]1CCCCN1Cc1cc(F)c(S(=O)(=O)Nc2ncns2)cc1F (single isomer, unassigned) [Example 14] | 0.22 |
| Cn1nccc1[C@@H]1CCCCN1Cc1cc(F)c(S(=O)(=O)Nc2ncns2)cc1F (single isomer, unassigned) [Example 15] | 9.36 |
| C[C@H](c1cc(F)c(S(=O)(=O)Nc2ncns2)cc1F)N1CCCC[C@@H]1c1ccccc1 (single isomer, unassigned) [Example 16] | 3.65 |
| C[C@H](c1cc(F)c(S(=O)(=O)Nc2ncns2)cc1F)N1CCCC[C@H]1c1ccccc1 (single isomer, unassigned) [Example 18] | 1.38 |
| C[C@@H]1CC[C@H](c2ccccc2)N(Cc2cc(F)c(S(=O)(=O)Nc3ncns3)cc2F)C1 (single isomer, unassigned) [Example 20] | 1.56 |
| C[C@H]1CC[C@@H](c2ccccc2)N(Cc2cc(F)c(S(=O)(=O)Nc3ncns3)cc2F)C1 (single isomer, unassigned) [Example 21] | 0.672 |
| C[C@H]1CCCN(Cc2cc(F)c(S(=O)(=O)Nc3ncns3)cc2F)[C@H]1c1ccccc1 (single isomer, unassigned) [Example 22] | 1.55 |

| SMILES | Nav1.7 (LBA) [µM] |
| --- | --- |
| C[C@@H]1CCCN(Cc2cc(F)c(S(=O)(=O)Nc3ncns3)cc2F)[C@@H]1c1ccccc1 (single isomer, unassigned) [Example 23] | 0.366 |
| O=S(=O)(Nc1ncns1)c1cc(F)c(CN2CCCC[C@H]2c2cn[nH]c2)cc1F (single isomer, unassigned) [Example 25] | 2.24 |
| O=S(=O)(Nc1ncns1)c1cc(F)c(CN2CCCC[C@H]2c2ccn[nH]2)cc1F (single isomer, unassigned) [Example 27] | 0.118 |
| O=S(=O)(Nc1ncns1)c1cc(F)c(CN2CC[C@@H](F)C[C@H]2c2ccccc2)cc1F (single isomer, unassigned) [Example 28] | 5.98 |
| O=S(=O)(Nc1ncns1)c1cc(F)c(CN2CC[C@H](F)C[C@@H]2c2ccccc2)cc1F (single isomer, unassigned) [Example 29] | 0.157 |
| O=S(=O)(Nc1ncns1)c1cc(F)c(CN2CC[C@@H](F)C[C@@H]2c2ccccc2)cc1F (single isomer, unassigned) [Example 30] | 1.71 |
| O=S(=O)(Nc1ncns1)c1cc(F)c(CN2CC[C@H](F)C[C@H]2c2ccccc2)cc1F (single isomer, unassigned) [Example 31] | 0.374 |
| O=S(=O)(Nc1ncns1)c1cc(F)c(CN2CCC(F)(F)C[C@H]2c2ccccc2)cc1F (single isomer, unassigned) [Example 32] | 0.18 |
| O=S(=O)(Nc1ncns1)c1cc(F)c(CN2CCC(F)(F)C[C@@H]2c2ccccc2)cc1F (single isomer, unassigned) [Example 33] | 4.16 |
| O=S(=O)(Nc1ncns1)c1cc(F)c(CN2CC[C@H](OC(F)(F)F)C[C@@H]2c2ccccc2)cc1F (single isomer, unassigned) [Example 35] | 0.0786 |
| O=S(=O)(Nc1ncns1)c1cc(F)c(CN2CC[C@H](OC(F)(F)F)C[C@H]2c2ccccc2)cc1F (single isomer, unassigned) [Example 36] | 0.538 |
| O=S(=O)(Nc1ncns1)c1ccc2c(c1)OCC[C@@H]2N1CCCC[C@H]1c1ccccc1 (single isomer, unassigned) [Example 37] | 0.0254 |
| O=S(=O)(Nc1ncns1)c1ccc2c(c1)OCC[C@H]2N1CCCC[C@H]1c1ccccc1 (single isomer, unassigned) [Example 38] | 0.203 |
| O=S(=O)(Nc1ncns1)c1ccc2c(c1)OCC[C@@H]2N1CCC[C@H]1c1ccccc1 (single isomer, unassigned) [Example 39] | 0.274 |
| O=S(=O)(Nc1ncns1)c1ccc2c(c1)OCC[C@H]2N1CCC[C@H]1c1ccccc1 (single isomer, unassigned) [Example 40] | 0.798 |
| O=S(=O)(Nc1ncns1)c1ccc2c(c1)CCC[C@@H]2N1CCCC[C@@H]1c1ccccc1 (single isomer, unassigned) [Example 51] | 0.482 |
| O=S(=O)(Nc1ncns1)c1ccc2c(c1)CCC[C@@H]2N1CCCC[C@H]1c1ccccc1 (single isomer, unassigned) [Example 52] | 0.269 |
| O=S(=O)(Nc1ncns1)c1ccc2c(c1)CCC[C@H]2N1CCCC[C@H]1c1ccccc1 (single isomer, unassigned) [Example 53, trifluoroacetic acid salt] | 0.271 |
| O=S(=O)(Nc1ncns1)c1ccc2c(c1)CCC[C@@H]2N1CCCC[C@H]1c1ccccc1 (single isomer, unassigned) [Example 54] | 0.411 |
| O=S(=O)(Nc1ncns1)c1ccc2c(c1)CCC[C@H]2N1CCCC[C@@H]1c1ccccc1 (single isomer, unassigned) [Example 55] | 0.286 |
